Experimental data taken from patent US11117947B2, “Double-acylated GLP-1 derivatives” (Novo Nordisk A/S, priority 2011, dated 2021).
Numbered stars: 1 amine (or outer) side, 2 acyl side, 3 side chain; on linkers, the order of the positions; unused ones are H or OH. Side chains are listed from the residue outwards. Peptide text beside a SMILES is read from it. * marks the point of attachment. Decanoyl(10-(4-HOOC-PhO)) = O=C(O)c1ccc(OCCCCCCCCCC(=O)*)cc1; γGlu = O=C(O)[C@H](CCC(=O)[*:2])N[*:1]; C14 diacid = O=C(O)CCCCCCCCCCCCC(=O)*; AEEA = NCCOCCOCC(=O)O

experiment: Estimate of oral bioavailability: gut injection in rat (caprate), exposure in plasma; format: in vivo; conditions: injection in jejunum, 1000 uM in 55 mg/ml sodium caprate, plasma concentration (pM) at 30 min divided by dosing solution concentration (μM), mean n=4
Protocol: The GLP-1 derivatives were tested in a concentration of 1000 uM in a solution of 55 mg/ml sodium caprate.
Male Sprague Dawley rats with a body weight upon arrival of approximately 240 g were obtained from Taconic (Denmark) and assigned to the different treatments by simple randomisation, 4 rats per group.
The GLP-1 derivatives were administered in the jejunum either in the proximal part (10 cm distal for the duodenum) or in the mid-intestine (50 cm proximal for the cecum). A PE50-catheter, 10 cm long was inserted into the jejunum, forwarded at least 1.5 cm into the jejunum, and secured before dosing by ligature around the gut and the catheter with 3/0 suture distal to tip to prevent leak or catheter displacement. Catheter was placed without syringe and needle and 2 ml saline was administered into abdomen before closing the incision with wound clips.
100 μl of the respective GLP-1 derivative was injected into the jejunal lumen through the catheter with a 1 ml syringe. Subsequently, 200 μl of air was pushed into the jejunal lumen with another syringe to “flush” the catheter. This syringe was leaved connected to the catheter to prevent flow back into the catheter.
Blood samples (200 ul) were collected at desired intervals (usually at times 0, 10, 30, 60, 120 and 240 min) into EDTA tubes from the tail vein and centrifuged 5 minutes, 10000G, at 4° C. within 20 minutes. […] 12, p. 240-247. The donor beads were coated with streptavidin, while acceptor beads were conjugated with a monoclonal antibody recognising a mid-/C-terminal epitope of the peptide. Another monoclonal antibody, specific for the N-terminus, was biotinylated. The three reactants were combined with the analyte and formed a two-sited immuno-complex. Illumination of the complex released singlet oxygen atoms from the donor beads, which were channeled into the acceptor beads and triggered chemiluminescence which was measured in an Envision plate reader. The amount of light was proportional to the concentration of the compound.
After the blood sampling the rats were sacrificed under anaesthesia and the abdomen was opened to verify correct catheter placement.
The mean (n=4) plasma concentrations (pmol/l) were determined as a function of time.

SMILES | Dose-corrected exposure at 30 min
CC[C@H](C)[C@H](NC(=O)[C@H](Cc1ccccc1)NC(=O)[C@H](CCCCNC(=O)COCCOCCNC(=O)COCCOCCNC(=O)CC[C@H](NC(=O)CCCCCCCCCOc1ccc(C(=O)O)cc1)C(=O)O)NC(=O)[C@H](CCCNC(=N)N)NC(=O)[C@@H](NC(=O)[C@H](C)NC(=O)[C@H](CCC(N)=O)NC(=O)[C@H](CCC(=O)O)NC(=O)[C@H](CCC(=O)O)NC(=O)[C@H](CC(C)C)NC(=O)[C@H](Cc1ccc(O)cc1)NC(=O)[C@H](CO)NC(=O)[C@H](CO)NC(=O)[C@@H](NC(=O)[C@H](CC(=O)O)NC(=O)[C@H](CO)NC(=O)[C@@H](NC(=O)[C@H](Cc1ccccc1)NC(=O)[C@@H](NC(=O)CNC(=O)[C@H](CCC(=O)O)NC(=O)[C@H](C)NC(=O)[C@@H](N)Cc1c[nH]cn1)[C@@H](C)O)[C@@H](C)O)C(C)C)C(C)C)C(=O)N[C@@H](C)C(=O)N[C@@H](Cc1c[nH]c2ccccc12)C(=O)N[C@@H](CC(C)C)C(=O)N[C@H](C(=O)N[C@@H](CCCNC(=N)N)C(=O)NCC(=O)N[C@@H](CCCNC(=N)N)C(=O)N[C@@H](CCCCNC(=O)COCCOCCNC(=O)COCCOCCNC(=O)CC[C@H](NC(=O)CCCCCCCCCOc1ccc(C(=O)O)cc1)C(=O)O)C(=O)O)C(C)C [Example 4, N^ε27-[2-[2-[2-[[2-[2-[2-[[(4S)-4-carboxy-4-[10-(4-carboxyphenoxy)decanoylamino]butanoyl]amino]ethoxy]ethoxy]acetyl]amino]ethoxy]ethoxy]acetyl], N^ε37-[2-[2-[2-[[2-[2-[2-[[(4S)-4-carboxy-4-[10-(4-carboxyphenoxy)decanoylamino]butanoyl]amino]ethoxy]ethoxy]acetyl]amino]ethoxy]ethoxy]acetyl]-[Glu^22,Val^25,Arg^26,Lys^27,Arg^34,Lys^37]-GLP-1-(7-37)-peptide] (H-HAEGTFTSDVSSYLEEQAVRK([AEEA-AEEA-γGlu-Decanoyl(10-(4-HOOC-PhO))])FIAWLVRGRK([AEEA-AEEA-γGlu-Decanoyl(10-(4-HOOC-PhO))])-OH; N-terminus and C-terminus assumed) | 39
CC[C@H](C)[C@H](NC(=O)[C@H](Cc1ccccc1)NC(=O)[C@H](CCCCNC(=O)COCCOCCNC(=O)COCCOCCNC(=O)CC[C@H](NC(=O)CCCCCCCCCOc1ccc(C(=O)O)cc1)C(=O)O)NC(=O)[C@H](CCCNC(=N)N)NC(=O)[C@H](C)NC(=O)[C@H](C)NC(=O)[C@H](CCC(N)=O)NC(=O)CNC(=O)[C@H](CCC(=O)O)NC(=O)[C@H](CC(C)C)NC(=O)[C@H](Cc1ccc(O)cc1)NC(=O)[C@H](CO)NC(=O)[C@H](CO)NC(=O)[C@@H](NC(=O)[C@H](CC(=O)O)NC(=O)[C@H](CO)NC(=O)[C@@H](NC(=O)[C@H](Cc1ccccc1)NC(=O)[C@@H](NC(=O)CNC(=O)[C@H](CCC(=O)O)NC(=O)[C@H](C)NC(=O)[C@@H](N)Cc1c[nH]cn1)[C@@H](C)O)[C@@H](C)O)C(C)C)C(=O)N[C@@H](CCC(=O)O)C(=O)N[C@@H](Cc1c[nH]c2ccccc12)C(=O)N[C@@H](CC(C)C)C(=O)N[C@H](C(=O)N[C@@H](CCCNC(=N)N)C(=O)NCC(=O)N[C@@H](CCCCNC(=O)COCCOCCNC(=O)COCCOCCNC(=O)CC[C@H](NC(=O)CCCCCCCCCOc1ccc(C(=O)O)cc1)C(=O)O)C(=O)NCC(=O)N[C@@H](CCC(=O)O)C(=O)O)C(C)C [Example 6, N^ε27-[2-[2-[2-[[2-[2-[2-[[(4S)-4-carboxy-4-[10-(4-carboxyphenoxy)decanoylamino]butanoyl]amino]ethoxy]ethoxy]acetyl]amino]ethoxy]ethoxy]acetyl], N^ε36-[2-[2-[2-[[2-[2-[2-[[(4S)-4-carboxy-4-[10-(4-carboxyphenoxy)decanoylamino]butanoyl]amino]ethoxy]ethoxy]acetyl]amino]ethoxy]ethoxy]acetyl]-[Arg^26,Lys^27,Glu^30,Arg^34,Lys^36]-GLP-1-(7-37)-peptidyl-Glu] (H-HAEGTFTSDVSSYLEGQAARK([AEEA-AEEA-γGlu-Decanoyl(10-(4-HOOC-PhO))])FIEWLVRGK([AEEA-AEEA-γGlu-Decanoyl(10-(4-HOOC-PhO))])GE-OH; N-terminus and C-terminus assumed) | 93
CC[C@H](C)[C@H](NC(=O)[C@H](Cc1ccccc1)NC(=O)[C@H](CCCCNC(=O)COCCOCCNC(=O)COCCOCCNC(=O)CC[C@H](NC(=O)CCCCCCCCCCCCC(=O)O)C(=O)O)NC(=O)[C@H](CCCNC(=N)N)NC(=O)[C@@H](NC(=O)[C@H](C)NC(=O)[C@H](CCC(N)=O)NC(=O)[C@H](CCCCNC(=O)COCCOCCNC(=O)COCCOCCNC(=O)CC[C@H](NC(=O)CCCCCCCCCCCCC(=O)O)C(=O)O)NC(=O)[C@H](CCC(=O)O)NC(=O)[C@H](CC(C)C)NC(=O)[C@H](Cc1ccc(O)cc1)NC(=O)[C@H](CO)NC(=O)[C@H](CO)NC(=O)[C@@H](NC(=O)[C@H](CC(=O)O)NC(=O)[C@H](CO)NC(=O)[C@@H](NC(=O)[C@H](Cc1ccccc1)NC(=O)[C@@H](NC(=O)CNC(=O)[C@H](CCC(=O)O)NC(=O)[C@H](C)NC(=O)[C@@H](N)Cc1c[nH]cn1)[C@@H](C)O)[C@@H](C)O)C(C)C)C(C)C)C(=O)N[C@@H](CCC(=O)O)C(=O)N[C@@H](Cc1c[nH]c2ccccc12)C(=O)N[C@@H](CC(C)C)C(=O)N[C@H](C(=O)N[C@@H](CCC(N)=O)C(=O)NCC(=O)N[C@@H](CCCNC(=N)N)C(=O)NCC(=O)O)C(C)C [Example 11, N^ε22-[2-[2-[2-[[2-[2-[2-[[(4S)-4-carboxy-4-(13-carboxytridecanoylamino)butanoyl]amino]ethoxy]ethoxy]acetyl]amino]ethoxy]ethoxy]acetyl], N^ε27-[2-[2-[2-[[2-[2-[2-[[(4S)-4-carboxy-4-(13-carboxytridecanoylamino)butanoyl]amino]ethoxy]ethoxy]acetyl]amino]ethoxy]ethoxy]acetyl]-[Lys^22,Val^25,Arg^26,Lys^27,Glu^30,Gln^34]-GLP-1-(7-37)-peptide] (H-HAEGTFTSDVSSYLEK([AEEA-AEEA-γGlu-C14 diacid])QAVRK([AEEA-AEEA-γGlu-C14 diacid])FIEWLVQGRG-OH; N-terminus and C-terminus assumed) | 66
CC[C@H](C)[C@H](NC(=O)[C@H](Cc1ccccc1)NC(=O)[C@H](CCCCNC(=O)COCCOCCNC(=O)COCCOCCNC(=O)CC[C@H](NC(=O)CCCCCCCCCOc1ccc(C(=O)O)cc1)C(=O)O)NC(=O)[C@H](CCCNC(=N)N)NC(=O)[C@@H](NC(=O)[C@H](C)NC(=O)[C@H](CCC(N)=O)NC(=O)CNC(=O)[C@H](CCC(=O)O)NC(=O)[C@H](CC(C)C)NC(=O)[C@H](Cc1ccc(O)cc1)NC(=O)[C@H](CO)NC(=O)[C@H](CO)NC(=O)[C@@H](NC(=O)[C@H](CC(=O)O)NC(=O)[C@H](CO)NC(=O)[C@@H](NC(=O)[C@H](Cc1ccccc1)NC(=O)[C@@H](NC(=O)CNC(=O)[C@H](CCC(=O)O)NC(=O)[C@H](C)NC(=O)[C@@H](N)Cc1c[nH]cn1)[C@@H](C)O)[C@@H](C)O)C(C)C)C(C)C)C(=O)N[C@@H](CCC(=O)O)C(=O)N[C@@H](Cc1c[nH]c2ccccc12)C(=O)N[C@@H](CC(C)C)C(=O)N[C@H](C(=O)N[C@@H](CCCNC(=N)N)C(=O)NCC(=O)N[C@@H](CCCCNC(=O)COCCOCCNC(=O)COCCOCCNC(=O)CC[C@H](NC(=O)CCCCCCCCCOc1ccc(C(=O)O)cc1)C(=O)O)C(=O)NCC(=O)N[C@@H](CCC(N)=O)C(=O)O)C(C)C [Example 12, N^α(N^ε27-[2-[2-[2-[[2-[2-[2-[[(4S)-4-carboxy-4-[10-(4-carboxyphenoxy)decanoylamino]butanoyl]amino]ethoxy]ethoxy]acetyl]amino]ethoxy]ethoxy]acetyl], N^ε36-[2-[2-[2-[[2-[2-[2-[[(4S)-4-carboxy-4-[10-(4-carboxyphenoxy)decanoylamino]butanoyl]amino]ethoxy]ethoxy]acetyl]amino]ethoxy]ethoxy]acetyl]-[Val^25,Arg^26,Lys^27,Glu^30,Arg^34,Lys^36]-GLP-1-(7-37)-peptidyl)-Gln] (H-HAEGTFTSDVSSYLEGQAVRK([AEEA-AEEA-γGlu-Decanoyl(10-(4-HOOC-PhO))])FIEWLVRGK([AEEA-AEEA-γGlu-Decanoyl(10-(4-HOOC-PhO))])GQ-OH; N-terminus and C-terminus assumed) | 68
